Measurements published in patent US20240391960A1, “EXTRACELLULAR CYCLOPHILIN INHIBITOR AND USE THEREOF” (PEKING UNIVERSITY SHENZHEN GRADUATE SCHOOL, priority 2021, published 2024).

What was measured:
albumin (BSA) = albumin (BSA) (Bos taurus, UniProt P02769); assay: Albumin cysteine reaction site, bottom-up peptide LC-ESI-MS; conditions: pancreatin digest, peptide GLVLIAFSQYLQQCPFDEHVK
Procedure: The complex of Example 4 was denatured with urea, and the diluted protein sample was added in the proportion of pancreatin:protein=1:50. After enzymatic hydrolysis at 37° C. for 18 h, the peptide sample was desalted using Pierce® Spin Columns (Thermo Fisher) desalting column. The eluate was eluted with 70% acetonitrile, lyophilized, dissolved with 0.1% formic acid in water, and the peptide was analyzed by LC-ESI-MS, and the modified sites were analyzed using BioPharma Finder software (Thermo Fisher).

Jurkat cells = assay: High resolution mass spectrometry determination of molecular penetration in Jurkat cells; assay type: in vitro ADME; conditions: 5 μM compound, 37° C., 2 hours
Source text: For direct detection of molecular penetration, intracellular compound concentrations were quantified by an external standard method using a QE-Focus mass spectrometer.
The m/z signal of the corresponding molecule is selected to perform peak extraction on the chromatogram to obtain an ion chromatogram (EIC) corresponding to the extraction of the molecule, and then the concentration of the extract is quantified using the peak area under the curve of the EIC of the cell extract.

intracellular CypA = molecular target: T1, intracellular CypA (Homo sapiens, UniProt P62937); assay: Fluorescence competition flow cytometry with CsA-FITC probe in Jurkat cells; assay type: cell-based; conditions: CsA-FITC labelled Jurkat cells
T1 construct: endogenous in cells; host or cells: Jurkat
T1 sequence (P62937 whole entry): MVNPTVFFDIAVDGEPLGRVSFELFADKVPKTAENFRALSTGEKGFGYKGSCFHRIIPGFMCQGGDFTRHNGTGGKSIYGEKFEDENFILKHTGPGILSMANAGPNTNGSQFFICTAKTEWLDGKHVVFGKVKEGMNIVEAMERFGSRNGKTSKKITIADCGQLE

CypA [1] = molecular target: T2, CypA (Homo sapiens, UniProt P62937); assay: Competitive fluorescence polarization binding assay
T2 sequence (P62937 whole entry, species assumed): as the sequence (P62937 whole entry) above
Source text: Fluorescence polarization (FP) is a widely used technique for measuring ligand-receptor binding in solution systems. Free fluorescent probes in the free state rotate rapidly in the system and the emitted fluorescence is mostly depolarized light. Once the probe binds to a larger molecule, the rotation of the molecule is restricted, and the emission of polarized light increases.

CypA [2] = molecular target: T2, CypA; assay: PPIase activity, chymotrypsin hydrolysis of N-Succinyl-Ala-Ala-Pro-Phe p-nitroanilide; assay type: biochemical; conditions: 50 nM CypA, 250 μg/mL chymotrypsin, 80 μM substrate peptide; read-out: IC50, CypA enzymatic activity
Procedure: The effect of inhibitors on CypA enzyme activity was determined using the chymotrypsin hydrolysis of N-Succinyl-Ala-Ala-Pro-Phe p-nitroanilide substrate peptide. […] When catalyzed by proline cis-trans isomerase, its configuration changes from cis to trans, which can be specifically cleaved by chymotrypsin and release p-nitroanilide with maximum absorption around 390 nm. Thus, the stronger the CypA enzyme activity is, the faster the substrate is degraded, and the faster the absorbance at 390 nm increases. Kinetic monitoring was initiated by the addition of 250 μg/mL chymotrypsin and finally, 80 μM of an ultra-dry substrate peptide solution (470 mM LiCL in trifluoroethanol) using a microplate reader with an autosampler after binding to different concentrations of inhibitors using 50 nM CypA.

NFAT = NFAT dephosphorylation in PMA/ionomycin activated Jurkat cells, Western blot; assay type: cell-based; conditions: 1.5 h preincubation, 25 nM PMA and 1 μg/mL ionomycin 2 h
Source text: Based on this, the present inventors investigated the effect of molecules on NFAT signal transduction during JurkatT cell activation by ionomycin and PMA. […] After the collection of cells, the dephosphorylation level of NFAT protein was detected by extraction, electrophoresis, transfer printing, and NFAT antibody. Dephosphorylation of NFAT results in two bands, phosphorylated and nonphosphorylated.

IL-2 = IL-2 secretion of activated Jurkat cells, ELISA; assay type: cell-based; conditions: 4MCsA up to 5 μM, 24 h PMA and ionomycin stimulation
Procedure: Meanwhile, the present invention further examined the secretion of IL-2 protein downstream of T-cell activation in which NFAT was involved, and the IL-2 protein content in the culture medium was measured using the ELISA method after 24 h of PMA and ionomycin stimulation.

IL-8 = assay: CypA-stimulated IL-8 transcription in THP1 cells, RT-PCR; assay type: cell-based; conditions: CypA 12 hours, medium with 0.1% BSA
THP-1 cells = assay: Transwell CypA-induced THP-1 cell migration; assay type: cell-based; conditions: 200 ng/ml CypA, 1 hour
[3] = test system: HEK293 human kidney cells; assay: MTT cytotoxicity; assay type: cell-based; conditions: HEK293, medium with 4% BSA, 30 hours, up to 50 μM
CypA [4] = assay: Serum CypA content in T2DM model mice, ELISA; assay type: in vivo; conditions: DB diabetic mice, tail vein weekly for 3 weeks
Source text: This example examined the effect of drugs on serum CypA contents in mice using db/db genetically engineered mice deficient in leptin receptors (DB mice) as a T2DM model (C57 mice as a healthy control group).

[5] = Fasting blood glucose and glycated hemoglobin in T2DM mouse models; assay type: in vivo, mice
Source text: To effectively evaluate the effect of the drug on T2DM, this example selected DB mice and high fat diet-induced obese mouse models (HFD mice) as two different predisposing mouse models of type 2 diabetes as subjects.

[6] = Glucose tolerance test (GTT); assay type: in vivo, mice
insulin = assay: Basal and glucose-stimulated insulin secretion, ELISA; assay type: in vivo, mice
[7] = Insulin tolerance test (ITT); assay type: in vivo, mice
Procedure: Insulin signaling response was further measured by performing an insulin sensitivity test (insulin tolerance test, ITT) on each of the two mice in Example 15. After the mice were fasted for 6 hours, insulin (2 U/kg for DB mice and 1 U/kg for HFD mice) was injected intraperitoneally, and then the blood glucose contents were measured at different time points.

TNF-a, IL-1β = assay: Serum inflammatory factors in DB mice, ELISA; assay type: in vivo; conditions: 42 days of administration
[8] = test system: CT26-LUC mouse colon cancer cells; assay: CT26-LUC mouse colon cancer tumor model; assay type: in vivo; conditions: Balb/C mice, subcutaneous CT26-LUC, 5 mg/kg, three weeks
Procedure: This example establishes a mouse tumor model to reflect the effect of the drug by measuring the size of the tumor.
CT26-LUC mouse colon cancer cells were inoculated subcutaneously on the dorsal side of Balb/C mice in an amount of […]. Six days later, the tumor size was about 100 mm^3. The simultaneous administration was measured with vernier caliper and the administration dose of 4MCsA was 5 mg/kg. The tumors were measured once every two days and the tumor size was counted. The experiment was terminated after three weeks.

CD8T cells = assay: CD8 T cell infiltration in the tumor microenvironment, frozen section immunofluorescence; assay type: in vivo, mice; conditions: tumor frozen sections
Procedure: The thickness of the frozen section is required to be 4-8 μm, place it at room temperature for 30 min after taking it out from −80° C., fix it in acetone at 4° C. for 10 min, wash with PBS, 5 min×3; block with 5-10% normal goat serum (diluted in PBS) and incubate at room temperature for 10 minutes. […] PBS flush, 5 min×3 times; add the appropriately diluted biotin-labeled secondary antibody (diluted in 1% BSA-PBS) dropwise, and incubate at 37° C. for 90-120 minutes; or second-generation horseradish enzyme-labeled streptavidin working solution, incubate at 37° C. or room temperature for 10-30 minutes; the PBS was washed 5 minutes×3 times, mounted and photographed using an inverted fluorescence microscope. Finally, ImageJ was used for statistical analysis.

[9] = Aortic lesion extent in high-fat diet induced atherosclerotic mice, oil red O; assay type: in vivo, ApoE gene-deficient C57BL/6J mice; conditions: ApoE-/- mice, Western diet, 5 mg/kg/week tail vein, 9 weeks
Procedure: Five-week-old ApoE gene-deficient C57BL/6J mice were randomly divided into two groups and fed with the Western diet for high-fat induction. From the 7th week, the experimental group received 4MCsA at a dose of 5 mg/kg/week via tail vein injection for 9 weeks. At the end of the experiment, the experimental animals were euthanized, dissected, and perfused with 10 mL of tissue fixative (4% paraformaldehyde) and 10 mL of […] from the right atrial appendage. The aorta was isolated intact under stereoscope and extravascular adherent adipose tissue was dissected with fat forceps. The isolated aorta was stained with oil red O, photographed, and recorded, and the lesion area of the aortic arch in the experimental group and the control group was counted with ImageJ, and the difference was statistically significant.

CRP = assay: Serum CRP in high-fat diet-induced atherosclerotic mice; assay type: in vivo; conditions: ApoE-/- mice, 5 mg/kg weekly, 9 weeks
Procedure: After successful modeling of atherosclerotic mice, the effect of the compounds on the development of cardiovascular disease was evaluated by assessing the risk of developing cardiovascular disease in the body by measuring CRP levels in the serum of experimental mice given weekly tail vein injections of 5 mg/kg 4MCsA for 9 weeks as described in Example 23.

[10] = Serum blood lipid markers in high-fat diet-induced atherosclerotic mice; assay type: in vivo; conditions: ApoE-/- mice, 5 mg/kg once a week, 9 weeks
Procedure: A mouse model of atherosclerosis induced by a high-fat diet was established as described in Example 23 and administered in groups, 4MCsA at 5 mg/kg or placebo via tail vein once a week for 9 consecutive weeks, after which the mice were euthanized and serum was collected for routine lipid profile testing.

[11] = Serum ALT, AST in high-fat diet-induced atherosclerotic mice; assay type: in vivo; conditions: ApoE-/- mice, 5 mg/kg once a week, 9 weeks
Source text: Atherosclerosis model in mice was induced and administered as described in Example 25. At the end of the experimental period, the mice were euthanized and serum was taken for determination of ALT and AST contents.

[12] = Hepatorenal toxicity evaluation, serum ALT, AST, creatinine, urea; conditions: 50 days
[13] = DB and HFD mice, once weekly tail vein, compared to CsA
[14] = HFD mice, within 36 hours on day 23 of dosing
[15] = HFD mice, within 60 hours on day 17 of dosing

Chain of albumin (BSA) (P02769 25-607): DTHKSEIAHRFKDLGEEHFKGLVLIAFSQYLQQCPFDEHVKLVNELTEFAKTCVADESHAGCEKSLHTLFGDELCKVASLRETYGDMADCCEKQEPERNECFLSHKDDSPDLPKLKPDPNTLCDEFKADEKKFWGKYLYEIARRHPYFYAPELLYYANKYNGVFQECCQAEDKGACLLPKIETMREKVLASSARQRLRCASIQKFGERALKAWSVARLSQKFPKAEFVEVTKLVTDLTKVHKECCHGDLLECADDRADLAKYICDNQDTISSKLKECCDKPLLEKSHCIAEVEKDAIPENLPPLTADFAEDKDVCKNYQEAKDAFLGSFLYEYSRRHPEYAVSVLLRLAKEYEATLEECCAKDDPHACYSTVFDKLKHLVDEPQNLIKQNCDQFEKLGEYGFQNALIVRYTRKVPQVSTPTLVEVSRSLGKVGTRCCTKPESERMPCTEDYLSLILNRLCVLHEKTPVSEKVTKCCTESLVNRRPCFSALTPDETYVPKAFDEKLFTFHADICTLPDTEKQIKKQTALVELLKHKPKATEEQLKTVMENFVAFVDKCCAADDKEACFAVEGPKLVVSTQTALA

CC=CCC(C)C(O)C1C(=O)NC(CC)C(=O)N(C)CC(=O)N(C)C(CCCCNC(=O)CCCCCN2C(=O)C=CC2=O)C(=O)NC(C(C)C)C(=O)N(C)C(CC(C)C)C(=O)NC(C)C(=O)NC(C)C(=O)N(C)C(CC(C)C)C(=O)N(C)C(CC(C)C)C(=O)N(C)C(C(C)C)C(=O)N1C (stereo not shown) [Compound 4MCsA]
modification site on BSA (albumin (BSA)): Cys34
Intracellular conc. (μM) (Jurkat cells): not detected
effect on the intracellular fluorescence signal (intracellular CypA): very little effect
Ki (CypA [1]; 50 nM CypA, 20 nM CsA-FITC probe): 198 ± 17 nM
IC50 (CypA [2]): 22.6 ± 4.3 nM
NFAT dephosphorylation induced by PMA and ionomycin (NFAT): no significant effect
secretion of IL-2 (IL-2): hardly affected
eCypA-increased transcription level of mRNA of IL-8 (IL-8): significantly inhibited
migration activity promoted by CypA (THP-1 cells): significantly abolished
cytotoxicity, cell survival by MTT [3]: little cytotoxicity
blood CypA contents (CypA [4]): decreased
fasting blood glucose [5, 13]: significantly decreased
glycated hemoglobin contents [5, 13]: decreased
fasting blood glucose vs C57 ctrl ([5]; normal C57 mice, 5 mg/kg/week, after 5 weeks): comparable to the normal group
GTT AUC ([6]; C57 healthy mice): less than that in CsA group
GTT area under the curve (AUC) ([6]; DB mice, 5 mg/kg group vs Ctrl): significantly reduced
glucose tolerance status (GTT) ([6]; DB mice, 5 mg/kg, after 5 weeks, glucose 1 g/kg i.p.): significantly improved
GTT [6, 14]: significant improvement
GTT AUC [6, 14]: significant decrease
GTT [6, 15]: remained significantly improved
GTT AUC [6, 15]: significantly reducing
basal level of insulin (insulin; DB mice): little effect
glucose-stimulated insulin secretion vs DB ctrl (insulin; DB mice): no significant difference
glucose-stimulated insulin secretion vs C57 ctrl (insulin; healthy C57 mice): increased
dose dependence of the effect on ITT ([7]; DB mice, 1 and 5 mg/kg/week): dose-dependent
insulin sensitivity (ITT) ([7]; DB mice, insulin 2 U/kg i.p.): significantly improved
ITT AUC compared with CsA ([7]; HFD mice): lower AUC
insulin resistance caused by obesity (ITT) ([7]; HFD mice, insulin 1 U/kg i.p.): attenuated insulin resistance
level of IL-1β (TNF-a, IL-1β): significantly reduce
level of TNF-a (TNF-a, IL-1β): significantly reduce
tumor size [8]: certain antitumor effect
infiltration of CD8T cells in the tumor microenvironment (CD8T cells): promote the infiltration
lesion area of the aortic arch vs control group [9]: significantly reduced
CRP content in the serum (CRP): very significantly reduce
HDL-C content [10]: increased
TC content [10]: no significant effect
TC/HDL-C [10]: significantly reduce
TG content [10]: no significant effect
serum LDL-C content [10]: significantly decreased
activity of ALT in the serum [11]: no significant change
activity of AST in the serum [11]: no significant change
ALT level ([12]; C57 healthy mice): remained close to those of healthy controls
AST level ([12]; C57 healthy mice): remained close to those of healthy controls
urea level ([12]; C57 healthy mice): remained close to those of healthy controls
creatinine level between groups ([12]; DB mice): no difference
hepatorenal toxicity (ALT, AST) ([12]; DB mice): not further enhanced
urea level between groups ([12]; DB mice): no difference

CCC1NC(=O)C(C(O)C(C)CC=Cc2ccc(C(=O)NCCOCCNC(=S)Nc3ccc(-c4c5ccc(=O)cc-5oc5cc(O)ccc45)c(C(=O)O)c3)cc2)N(C)C(=O)C(C(C)C)N(C)C(=O)C(CC(C)C)N(C)C(=O)C(CC(C)C)N(C)C(=O)C(C)NC(=O)C(C)NC(=O)C(CC(C)C)N(C)C(=O)C(C(C)C)NC(=O)C(CC(C)C)N(C)C(=O)CN(C)C1=O (stereo not shown) [CsA-FITC, reference compound]
proportion of fluorescent cells (intracellular CypA): 95.30%
Kd (CypA [1]; fluorescence polarization, probe itself, read-out: binding constant Kd with CypA): 14.8 ± 0.7 nM
